Earlier results as cited in patent US9682980B2, “Positive allosteric modulators of mGluR2” (BRISTOL-MYERS SQUIBB COMPANY, priority 2012, dated 2017).

Tests used:
Conditions in all cases: cited from earlier work
[1] = system: rats treated with phencyclidine (PCP)
GAD patients = system: GAD patients
schizophrenia = system: schizophrenia

In the case of N[C@@]1(C(=O)O)CC[C@H]2[C@H](C(=O)O)[C@H]21 [LY-354740], the brain glutamate levels [1] is given as “lowered brain glutamate levels” and the “behavioral effects of PCP” value ([1]; hyper-locomotion and working memory deficits) is given as “reversed the behavioral effects of PCP”.

For C[C@H](N)C(=O)N[C@@]1(C(=O)O)CC[C@H]2[C@H](C(=O)O)[C@H]21 [LY-544344], the “therapeutic effects for anxiety” value (GAD patients) is given as “therapeutic effects”.

For CSCC[C@H](N)C(=O)N[C@@]1(C(=O)O)CS(=O)(=O)[C@H]2[C@H](C(=O)O)[C@H]21 [LY-2140023], the “positive and negative symptoms in schizophrenia” value (schizophrenia) is given as “relief of positive and negative symptoms”.
